Reference: patent publication US4089959A, “Long-acting xanthine bronchodilators and antiallergy agents” (priority 1976, dated 1978)

How the values were obtained:
[1] = tested on: antigen-induced bronchconstriction; assay: AA: antiallergy (anti-anaphylactic) activity against antigen-induced bronchoconstriction in sensitized rats; conditions: 1h
From the text: The animals are subdivided into control and test groups.
Test animals receive a drug either orally, intraperitoneally or intravenously and are challenged with intravenous antigen at fixed time intervals after dosing. Antigen-induced increases in tracheal pressure are monitored and reflect the extent of bronchoconstriction.

[2] = tested on: guinea pig tracheal chain; assay: SP: spasmolytic activity in vitro, guinea pig tracheal chain preparation; format: cell-based; conditions: Cavia porcellus; given as fraction of molar, e.g. M/1000; read-out: SP in vitro, C: molar (M) concentration required to produce maximum relaxation
From the text: SP: Spasmolytic activity evaluated in vitro using guinea pig tracheal chain preparation, and expressed as the molar (M) concentration required to produce maximum relaxation. The method used in that of Castillo and de Beer, J. Pharmac. Expt. Therap. 90, 104, 1947.

[3] = tested on: histamine-induced bronchoconstriction; assay: BD: bronchodilator activity against histamine-induced bronchoconstriction in the guinea pig; format: in vivo; conditions: for potency, in words: 4280 at 20 mpK po vs 4258 at 15 mpK po; for lethal (animals) / dose showing lethal effects: guinea pig; for dose showing lethal effects: po
Procedure: A modification of the method of Siegmund. O. H., et.al., J. Pharmacol. and Exp. Therap. 90:254-9, 1947, is used. […] Times for prostration are recorded.

LD50, mouse = conditions: in vivo, po
Procedure: (§1) The LD50 was determined in three species, the mouse (male, 18-25 g), the albino rat (female, 150-200 g) and the albino guinea pig (male 180-280 g) by oral administration and in the albino rat by intraperitoneal administration. The animals are fasted overnight prior to testing. Six groups of 10 animals are used; five groups are dosed with the test substance, the sixth group serves as a control and receives the drug vehicle at the highest test concentration. The compounds were administered in a 0.5% gum tragacanth solution in distilled water using a constant logarithmic increment in dose. Dose volume ranged from […].
The animals were housed five per cage (rat and guinea pig) or ten per cage (mouse) with free access to food and water. The number of dead animals was recorded daily for five consecutive days. The total mortality per group of 10 for each dose level was recorded and LD50 with Confidence Limits calculated according to the method described by Weil, C. S., Biometrics 8(3): 249-263, 1952.

in vivo = assay: in vivo
Procedure: as §1
The animals were housed five per cage (rat and guinea pig) or ten per cage (mouse) with free access to food and water. The number of dead animals was recorded daily for five consecutive days.

[4] = tested on: histamine-induced bronchoconstriction; assay: CP: cardiopulmonary activity against histamine-induced bronchoconstriction in the dog; format: in vivo; conditions: histamine administration; vs theophylline
From the text: Int. Pharmacodyn. Therap. […] Pretreatment with bronchodilator drugs aims to block the bronchospastic response to histamine. Each dog serves as its own control.

[5] = tested on: antigen-induced wheal formation; assay: PCA: passive cutaneous anaphylaxis in the rat; format: in vivo; conditions: 20 mg/kg po
Procedure: PCA: Antianaphylactic activity against passive cutaneous anaphylaxis in the rat, expressed as % protection against antigen-induced wheal formation.
The method used is that of Ogilvie, B. M., Immunology 12, 113-131 (1967). Reaginic […] antibodies develope in that rat following subcutaneous injection of Nippostrongylus brasiliensis larvae. Antisera, collected 28 days later are injected subcutaneously into new rats.

CC(C)Cn1c(=O)n(C)c(=O)c2[nH]cnc21 [Compound 4258]
AA, toxicity noted in place of % protection ([1]; 2.0 mpK ip): tox | EC (maximum relaxation) [2]: 0.001 M | BD, % protection ([3]; 15 mpK po, 30'): 45% | BD, % protection ([3]; 15 mpK po, 2h): 75% | BD, % protection ([3]; 15 mpK po, 4h): 39% | potency, in words [3]: equal potency | lethal (animals) ([3]; 25 mpK po): 2/4 | dose showing lethal effects [3]: 25 mpK

CCC(C)Cn1c(=O)n(C)c(=O)c2[nH]cnc21 (stereo not shown) [Compound 4280]
AA, % protection ([1]; 15 mpK ip): 56% | EC (maximum relaxation) [2]: 0.001 M | BD, % protection ([3]; 20 mpK po, 30'): 86% | BD, % protection ([3]; 20 mpK po, 1h): 86% | BD, % protection ([3]; 20 mpK po, 2h): 80% | BD, % protection ([3]; 20 mpK po, 4h): 13% | potency, in words [3]: equal potency | lethal (animals) ([3]; 80 mpK po): 3/8 | dose showing lethal effects [3]: 80 mpK

Cc1nc2c([nH]1)c(=O)n(C)c(=O)n2C [Compound 4296]
EC (maximum relaxation) [2]: 0.0714 M | BD, % protection ([3]; 100 mpK po, 8h): 23% | BD, % protection ([3]; 150 mpK po, 30'): 68% | BD, % protection ([3]; 150 mpK po, 8h): 85%

CCCC(C)Cn1c(=O)n(C)c(=O)c2[nH]c(C)nc21 (stereo not shown) [Compound 4373, 1,8-dimethyl-3-(2-methyl-1-pentyl)xanthine]
AA, % protection ([1]; 20 mpK ip): 54% | EC (maximum relaxation) [2]: 0.05 M | BD, % protection ([3]; 40 mpK po, 30'): 71% | BD, % protection ([3]; 40 mpK po, 4h): 87% | BD, % protection ([3]; 40 mpK po, 6h): 96% | BD, % protection ([3]; 80 mpK po, 30'): 81% | BD, % protection ([3]; 80 mpK po, 4h): 100%

CCC(C)Cn1c(=O)n(C)c(=O)c2[nH]c(C)nc21 (stereo not shown) [Compound 4383, 1,8-dimethyl-3-(2-methyl-1-butyl) xanthine]
LD50 at 120 h (LD50, mouse): 66.6 mg/kg | LD50 at 120 h (in vivo; ip, rat): 24.6 mg/kg | LD50 at 120 h (in vivo; po, guinea pig): 21.7 mg/kg | LD50 at 120 h (in vivo; po, rat): 88.7 mg/kg | AA, % protection ([1]; 2.5 mpK po): 58% | AA, % protection ([1]; 4 mpK ip): 57% | EC (maximum relaxation) [2]: 0.001 M | bronchodilation in the dog, in words [4]: significantly reduces the decrease in pulmonary compliance and increase in pulmonary resistance due to histamine administration | Wheal Diameter, % Δ [5]: 50% | Wheal Intensity, % Δ [5]: 48% | Wheal Diameter: Mean ± S.E.M., Response ([5]; control 1.50 ± 0.16): 0.74 ± 0.16 cm | Wheal Intensity: Mean ± S.E.M., Response ([5]; control 2.17 ± 0.21): 1.13 | BD, % protection ([3]; 10 mpK po, 30'): 35% | bronchodilation potency in the BD (guinea pig) assay, in words ([3]; 10 mpK po, 4383 vs 4388): about the same bronchodilation potency as 4388 | BD, % protection ([3]; 10 mpK po, 2h): 63% | BD, % protection ([3]; 10 mpK po, 6h): 66% | toxic effects in the BD (guinea pig) assay, in words ([3]; 20 mpK po): no toxic effects | BD, % protection ([3]; 20 mpK po, 1h): 92% | BD, % protection ([3]; 20 mpK po, 4h): 100% | BD, % protection ([3]; 20 mpK po, 6h): 97%

Cc1nc2c([nH]1)c(=O)n(C)c(=O)n2CC(C)C [Compound 4388, 1,8-dimethyl-3-isobutylxanthine]
AA, % protection ([1]; 2.5 mpK po): 50% | AA, % protection ([1]; 75 mpK ip): 70% | EC (maximum relaxation) [2]: 0.001 M | BD, % protection ([3]; 10 mpK po, 1h): 76% | BD, % protection ([3]; 10 mpK po, 4h): 73% | BD, % protection ([3]; 10 mpK po, 6h): 80% | toxic effects in the BD (guinea pig) assay, in words ([3]; 20 mpK po): pronounced toxicity and was even lethal to one animal | bronchodilator potency, in words ([3]; general statement): great potency and is long-acting | lethal (animals) ([3]; 20 mpK po): 1/4

Cn1c(=O)c2[nH]cnc2n(C)c1=O [Theophylline, 1,3-dimethylxanthine]
EC (maximum relaxation) [2]: 0.1 M
